Data on 14 molecules can be found in PubChem BioAssay (NCI).

In general, GI50 refers to the concentration at which growth is held to half of that of the control. As usually defined, the TGI is the concentration at which net growth stops. Lower therefore signals greater sensitivity of the cells.

Test systems include BT-549 breast; DU-145 prostate; HCC-2998 colon; M14 melanoma; MCF7 breast; SF-539 CNS; SK-MEL-2 melanoma; UO-31 renal; IGROV1 ovarian.
Holding throughout (assay): DTP human tumour cell line panel, 48 h

Each structure is given as a SMILES string.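 Dose response: 5 concentrations. Exposure: 48 h. Format: 96-well plates. Endpoint: linear interpolation; highest concentration if not reached. At the GI50, growth is halved. At the TGI there is no net growth.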

Turning to `COc1cc(/C=C/C(=O)C(C(=O)/C=C/c2ccc(OC(=O)CCNC34CC5CC(CC(C5)C3)C4)c(OC)c2)C(=O)CCNC23CC4CC(CC(C4)C2)C3)ccc1OC(=O)CCNC12CC3CC(CC(C3)C1)C2` (stereo not drawn), the GI50 in the assay with BT-549 breast is 2.5 µM; in the assay with DU-145 prostate, 2.21 µM; in the assay with HCC-2998 colon it was 1.93 µM; in the assay on M14 melanoma it was 3.51 µM; in the assay with MCF7 breast it was 1.97 µM; in the assay on SF-539 CNS it was 2.27 µM. The GI50 in the assay on SK-MEL-2 melanoma is 3.53 µM; in the assay with UO-31 renal, 2.71 µM. Moreover, the TGI in the assay on BT-549 breast amounted to 5.77 µM; with DU-145 prostate it was 5.02 µM; with HCC-2998 colon it was 3.84 µM; with M14 melanoma, 13.9 µM; with MCF7 breast, 6.28 µM; in the assay with SF-539 CNS, 5.01 µM. Also, the TGI in the assay on SK-MEL-2 melanoma was > 100 µM; in the assay on UO-31 renal, 18.7 µM.

Consider `Cc1c2c(C(N)=O)nccc2c(C)c2c1c1ccccc1n2Cc1ccccc1`, for which the TGI was 90.4 µM in the assay on BT-549 breast; > 100 µM in the assay with DU-145 prostate; 73.1 µM with HCC-2998 colon; 42.7 µM with IGROV1 ovarian; > 100 µM in the assay with M14 melanoma; > 100 µM in the assay with MCF7 breast. In addition, the TGI in the assay with SF-539 CNS amounted to 37.7 µM; in the assay with SK-MEL-2 melanoma, 43.3 µM; in the assay with UO-31 renal, 37.6 µM.

As for `c1ccc2c(c1)c1ccccc1c1ccccc21`, the GI50 in the assay with BT-549 breast, in the assay on DU-145 prostate, in the assay on HCC-2998 colon, in the assay on IGROV1 ovarian, in the assay with M14 melanoma and in the assay on MCF7 breast was > 100 µM throughout. Also, the GI50 in the assay with SF-539 CNS, in the assay with SK-MEL-2 melanoma and with UO-31 renal was > 100 µM each time. For the same molecule, the TGI in the assay on BT-549 breast, in the assay on DU-145 prostate, in the assay on HCC-2998 colon, in the assay on IGROV1 ovarian, in the assay on M14 melanoma and in the assay on MCF7 breast was > 100 µM in each case. Also, the TGI in the assay with SF-539 CNS, with SK-MEL-2 melanoma and in the assay on UO-31 renal was > 100 µM in each case.

Consider `Cn1cc(-c2csc(-c3cn(C)c4ccc(F)cc34)n2)c2cnccc21`, for which the GI50 in the assay with BT-549 breast is 1.71 µM; in the assay with DU-145 prostate it was 1.74 µM; with HCC-2998 colon, 1.86 µM; in the assay with IGROV1 ovarian it was 1.96 µM; with M14 melanoma it was 1.72 µM; in the assay with MCF7 breast, 1.93 µM. Besides, the values for the GI50 in the assay with SF-539 CNS, in the assay with SK-MEL-2 melanoma and with UO-31 renal were 1.85 µM, 1.79 µM and 1.64 µM, respectively. The TGI was 3.1 µM with BT-549 breast; 3.16 µM with DU-145 prostate; 3.55 µM in the assay with HCC-2998 colon; 3.63 µM in the assay with IGROV1 ovarian; 3.21 µM with M14 melanoma; 3.66 µM with MCF7 breast. The TGI in the assay with SF-539 CNS is 3.35 µM; in the assay with SK-MEL-2 melanoma, 3.38 µM; in the assay with UO-31 renal, 3.09 µM.

For the molecule `COc1cc(C(=O)O[C@H](C(N)=O)[C@]2(C)CO2)c2cccc(C)c2c1`, the GI50 in the assay with BT-549 breast was < 0.0418 µM; in the assay with DU-145 prostate, < 0.017 µM; in the assay on HCC-2998 colon, 0.0257 µM; with IGROV1 ovarian, < 0.01 µM; in the assay on M14 melanoma it was 2.13 µM; in the assay with MCF7 breast it was < 0.0367 µM. The GI50 in the assay on SF-539 CNS was < 0.0121 µM; with SK-MEL-2 melanoma it was < 0.01 µM; in the assay with UO-31 renal it was 0.0404 µM. Moreover, the TGI is 0.655 µM with BT-549 breast; 0.0928 µM with DU-145 prostate; 0.54 µM with HCC-2998 colon; 0.0567 µM in the assay on IGROV1 ovarian; 4.84 µM with M14 melanoma; > 100 µM with MCF7 breast. The TGI was < 0.0465 µM in the assay on SF-539 CNS, 0.0478 µM in the assay with SK-MEL-2 melanoma and 0.33 µM in the assay on UO-31 renal.

As for `C=C1C(=O)OC2C1CC(OC(C)=O)/C(C)=C/CCC1(C)OC21` (stereo not drawn), the TGI with BT-549 breast, in the assay with DU-145 prostate, in the assay on HCC-2998 colon, in the assay with IGROV1 ovarian, in the assay with M14 melanoma and in the assay on MCF7 breast was > 100 µM each time. The TGI in the assay with SF-539 CNS, in the assay with SK-MEL-2 melanoma and with UO-31 renal was > 100 µM each time.

In the case of `COc1cc(/C=C/C(=O)Oc2ccccc2)ccc1C(=O)O/C=C/c1ccccc1`, the TGI in the assay on BT-549 breast, with DU-145 prostate, with HCC-2998 colon, with IGROV1 ovarian, with M14 melanoma and in the assay on MCF7 breast was > 100 µM each time. Also, the TGI in the assay with SF-539 CNS, with SK-MEL-2 melanoma and in the assay with UO-31 renal was > 100 µM throughout.

Turning to `Cn1cc(S(=O)(=O)N2CCC3=Cc4c(cnn4-c4ccc(F)cc4)C[C@]3(C(=O)c3cc(C(F)(F)F)ccn3)C2)cn1`, the GI50 with BT-549 breast is 26.6 µM; with DU-145 prostate, > 100 µM; in the assay on HCC-2998 colon it was > 100 µM; in the assay on IGROV1 ovarian it was 23.3 µM; with M14 melanoma, > 100 µM; in the assay on MCF7 breast it was 6.34 µM. Also, the values for the GI50 in the assay on SF-539 CNS, in the assay on SK-MEL-2 melanoma and in the assay on UO-31 renal were 95.8 µM, 88.2 µM and 9.52 µM, respectively. Further, the TGI with BT-549 breast, with DU-145 prostate, in the assay on HCC-2998 colon, with IGROV1 ovarian, with M14 melanoma and in the assay with MCF7 breast was > 100 µM throughout. Moreover, the TGI with SF-539 CNS, in the assay with SK-MEL-2 melanoma and in the assay on UO-31 renal was > 100 µM each time.

Turning to `COc1ccc(/C=C/c2cnccn2)cc1OC`, the TGI in the assay on BT-549 breast, in the assay on DU-145 prostate, in the assay on HCC-2998 colon, with IGROV1 ovarian, in the assay with M14 melanoma and in the assay with MCF7 breast was > 10 µM in each case. Further, the TGI in the assay with SF-539 CNS, with SK-MEL-2 melanoma and in the assay with UO-31 renal was > 10 µM throughout.

Take `COc1cc2c3c(n(CCCN(C)CCO)c(=O)c2cc1OC)-c1cc2c(cc1C3=O)OCO2`: the GI50 with BT-549 breast is 3.13 µM; with DU-145 prostate it was 0.816 µM; in the assay with HCC-2998 colon, 7.05 µM; in the assay on IGROV1 ovarian it was 2.47 µM; in the assay on M14 melanoma, 1.48 µM; with MCF7 breast it was > 28.3 µM. For the same molecule, the GI50 was 2.89 µM with SF-539 CNS, > 100 µM in the assay on SK-MEL-2 melanoma and 3.41 µM in the assay on UO-31 renal. Moreover, the TGI in the assay with BT-549 breast is > 22.3 µM; with DU-145 prostate, > 100 µM; in the assay on HCC-2998 colon, > 52.1 µM; in the assay with IGROV1 ovarian, > 55.6 µM; with M14 melanoma, > 68.9 µM; with MCF7 breast it was > 100 µM. For the same molecule, the TGI with SF-539 CNS was > 33.5 µM; with SK-MEL-2 melanoma it was > 100 µM; in the assay on UO-31 renal it was > 57.9 µM.

For `N#CC(C#N)=C1CCCOc2c1ccc1ccccc21`, the GI50 in the assay on BT-549 breast is 98.8 µM; in the assay with DU-145 prostate it was > 100 µM; with HCC-2998 colon, > 100 µM; in the assay on IGROV1 ovarian it was > 100 µM; in the assay on M14 melanoma, > 100 µM; with MCF7 breast it was > 100 µM. Also, the GI50 in the assay on SF-539 CNS and in the assay on UO-31 renal was > 100 µM each time. The TGI in the assay with BT-549 breast, in the assay with DU-145 prostate, in the assay with HCC-2998 colon, in the assay on IGROV1 ovarian, in the assay on M14 melanoma and in the assay on MCF7 breast was > 100 µM in each case. The TGI with SF-539 CNS and with UO-31 renal was > 100 µM throughout.

In the case of `CCOC(=O)c1sc(NC(=O)COc2cccc(/C=C3\CCc4cc(OC)ccc4C3=O)c2)nc1C`, the GI50 is 3.26 µM in the assay on BT-549 breast; 1.86 µM in the assay on DU-145 prostate; 8.59 µM in the assay on HCC-2998 colon; 3.02 µM in the assay with IGROV1 ovarian; 7.95 µM in the assay on M14 melanoma; 3.03 µM in the assay on MCF7 breast. Besides, the GI50 is 2.1 µM in the assay with SF-539 CNS, 5.38 µM with SK-MEL-2 melanoma and 5.99 µM with UO-31 renal. The TGI in the assay on BT-549 breast was > 100 µM; in the assay with DU-145 prostate, 3.81 µM; in the assay on HCC-2998 colon, 38.8 µM; with IGROV1 ovarian, 21 µM; in the assay with M14 melanoma, > 100 µM; in the assay on MCF7 breast, > 100 µM. The TGI in the assay on SF-539 CNS was 7.58 µM; in the assay with SK-MEL-2 melanoma, > 100 µM; in the assay on UO-31 renal, > 100 µM.

For `CNC(C)[C@H]1CCC2C3CC=C4C(=O)[C@@H](NC(=O)C=C(C)C)CC[C@]4(C)C3CC[C@@]21C` (stereo partly drawn), the GI50 in the assay on BT-549 breast was 2.34 µM; in the assay on DU-145 prostate it was 4.53 µM; in the assay with HCC-2998 colon, 0.626 µM; in the assay on IGROV1 ovarian, 3.19 µM; with M14 melanoma, 1.72 µM; in the assay with MCF7 breast, 1.7 µM. Further, the figures for the GI50 with SF-539 CNS, in the assay on SK-MEL-2 melanoma and in the assay with UO-31 renal were 1.3 µM, 2.74 µM and 1.33 µM, respectively. For the same molecule, the TGI in the assay on BT-549 breast worked out at 8.42 µM; with DU-145 prostate it was 16.9 µM; in the assay on HCC-2998 colon, 3.02 µM; in the assay with IGROV1 ovarian it was 11.8 µM; in the assay on M14 melanoma it was 3.45 µM; with MCF7 breast, 5.98 µM. The TGI in the assay on SF-539 CNS came to 2.64 µM; in the assay on SK-MEL-2 melanoma, 6.9 µM; in the assay with UO-31 renal, 3.14 µM.

In the case of `CC(Cl)CN1c2ccccc2Sc2ccc(Cl)cc21` (stereo not drawn), the TGI in the assay with BT-549 breast, with DU-145 prostate, in the assay with HCC-2998 colon, in the assay on IGROV1 ovarian, with M14 melanoma and with MCF7 breast was > 10 µM throughout. Moreover, the TGI in the assay on SF-539 CNS, in the assay with SK-MEL-2 melanoma and with UO-31 renal was > 10 µM each time.
